# Target: GABAA receptor (rat brain cortical membranes, [35S]-TBPS binding)
# Details: Table I-4; rat brain cortical membranes, 3 nM [35S]-TBPS, in the presence of 5 mM GABA
row,SMILES,IC50
1,"C[C@@]1(O)CC[C@H]2[C@H](CC[C@@H]3[C@@H]2CC[C@]2(C)[C@@H](CNC(=O)c4ccccc4)CCC[C@@H]32)C1 [I-C4, N-(((1S,4aS,4bR,6aR,8R,10aS,10bR,12aS)-8-hydroxy-8,12a-dimethyloctadecahydrochrysen-1-yl)methyl)benzamide]",100 to 1000 nM
2,"CNC[C@H]1CCC[C@H]2[C@@H]3CC[C@@H]4C[C@](C)(O)CC[C@@H]4[C@H]3CC[C@]12C [I-C5, (2R,4aS,4bR,6aS,7S,10aS,10bR,12aR)-2,6a-dimethyl-7-((methylamino)methyl)octadecahydrochrysen-2-ol]",1000 to 10000 nM
3,"CN(C[C@H]1CCC[C@H]2[C@@H]3CC[C@@H]4C[C@](C)(O)CC[C@@H]4[C@H]3CC[C@]12C)C(=O)c1ccccc1 [I-C6, N-(((1S,4aS,4bR,6aR,8R,10aS,10bR,12aS)-8-hydroxy-8,12a-dimethyloctadecahydrochrysen-1-yl)methyl)-N-methylbenzamide]",100 to 1000 nM
4,"CC(=O)[C@H]1CCC[C@H]2[C@@H]3CC[C@@H]4C[C@](C)(O)CC[C@@H]4[C@H]3CC[C@]12C [I-D7, 1-((1S,4aS,4bR,6aR,8R,10aS,10bR,12aS)-8-hydroxy-8,12a-dimethyloctadecahydrochrysen-1-yl)ethan-1-one]",< 10 nM
5,"CC(=O)[C@@H]1CCC[C@H]2[C@@H]3CC[C@@H]4C[C@](C)(O)CC[C@@H]4[C@H]3CC[C@]12C [I-D7a, 1-((1R,4aS,4bR,6aR,8R,10aS,10bR,12aS)-8-hydroxy-8,12a-dimethyloctadecahydrochrysen-1-yl)ethan-1-one]",100 to 1000 nM
6,"C[C@H]1CCCCN1C(=O)[C@H]1CCC[C@H]2[C@@H]3CC[C@@H]4C[C@](C)(O)CC[C@@H]4[C@H]3CC[C@]12C [I-E4, ((1S,4aS,4bR,6aR,8R,10aS,10bR,12aS)-8-hydroxy-8,12a-dimethyloctadecahydrochrysen-1-yl)((S)-2-methylpiperidin-1-yl)methanone]",100 to 1000 nM
7,"COC[C@@]1(O)CC[C@H]2[C@@H](CC[C@@H]3[C@@H]2CC[C@]2(C)[C@@H](C(C)=O)CCC[C@@H]32)C1 [I-G14, 1-((1S,4aS,4bR,6aS,8R,10aS,10bR,12aS)-8-hydroxy-8-(methoxymethyl)-12a-methyloctadecahydrochrysen-1-yl)ethan-1-one]",10 to 100 nM
8,"COC[C@@]1(O)CC[C@H]2[C@@H](CC[C@@H]3[C@@H]2CC[C@]2(C)[C@@H](C(=O)Cn4nnc(C)n4)CCC[C@@H]32)C1 [I-G16, 1-((1S,4aS,4bR,6aS,8R,10aS,10bR,12aS)-8-hydroxy-8-(methoxymethyl)-12a-methyloctadecahydrochrysen-1-yl)-2-(5-methyl-2H-tetrazol-2-yl)ethan-1-one]",< 10 nM

# Same assay, conditions: Table I-6; rat brain cortical membranes, 3 nM [35S]-TBPS, in the presence of 5 mM GABA
row,SMILES,IC50
1,"COC[C@@H]1CCCC[C@H]2[C@@H]3CC[C@@H]4C[C@](C)(O)CC[C@@H]4[C@H]3CC[C@]12C [I-BA6a, (2R,4aS,4bR,6aS,7R,11aS,11bR,13aR)-7-(methoxymethyl)-2,6a-dimethyloctadecahydro-1H-cyclohepta[a]phenanthren-2-ol]",1000 to 10000 nM
2,"CC(=O)[C@H]1CCCC[C@H]2[C@@H]3CC[C@@H]4C[C@](C)(O)CC[C@@H]4[C@H]3CC[C@]12C [I-BA9a, 1-((2R,4aS,4bR,6aS,7S,11aS,11bR,13aR)-2-hydroxy-2,6a-dimethyloctadecahydro-1H-cyclohepta[a]phenanthren-7-yl)ethan-1-one]",10 to 100 nM
3,"C[C@@]1(O)CC[C@H]2[C@H](CC[C@@H]3[C@@H]2CC[C@]2(C)[C@H](O)CCCC[C@@H]32)C1 [I-BA12, (2R,4aS,4bR,6aS,7R,11aS,11bR,13aR)-2,6a-dimethyloctadecahydro-1H-cyclohepta[a]phenanthrene-2,7-diol]",1000 to 10000 nM
4,"C[C@@]1(O)CC[C@H]2[C@H](CC[C@@H]3[C@@H]2CC[C@]2(C)[C@@H](C#N)CCCC[C@@H]32)C1 [I-BA16, (2R,4aS,4bR,6aS,7S,11aS,11bR,13aR)-2-hydroxy-2,6a-dimethyloctadecahydro-1H-cyclohepta[a]phenanthrene-7-carbonitrile]",10 to 100 nM
5,"C[C@@]1(O)CC[C@H]2[C@H](CC[C@@H]3[C@@H]2CC[C@]2(C)[C@H](C#N)CCCC[C@@H]32)C1 [I-BA16a, (2R,4aS,4bR,6aS,7R,11aS,11bR,13aR)-2-hydroxy-2,6a-dimethyloctadecahydro-1H-cyclohepta[a]phenanthrene-7-carbonitrile]",1000 to 10000 nM
6,"C[C@@]1(O)CC[C@H]2[C@H](CC[C@@H]3[C@@H]2CC[C@]2(C)[C@@H](C(=O)Nc4ccccc4)CCCC[C@@H]32)C1 [I-BA17, (2R,4aS,4bR,6aS,7S,11aS,11bR,13aR)-2-hydroxy-2,6a-dimethyl-N-phenyloctadecahydro-1H-cyclohepta[a]phenanthrene-7-carboxamide]",10 to 100 nM
7,"C[C@@]1(O)CC[C@H]2[C@H](CC[C@@H]3[C@@H]2CC[C@]2(C)[C@H](C(=O)Nc4ccccc4)CCCC[C@@H]32)C1 [I-BA17a, (2R,4aS,4bR,6aS,7R,11aS,11bR,13aR)-2-hydroxy-2,6a-dimethyl-N-phenyloctadecahydro-1H-cyclohepta[a]phenanthrene-7-carboxamide]",100 to 1000 nM
8,"C[C@@]1(O)CC[C@H]2[C@H](CC[C@@H]3[C@@H]2CC[C@]2(C)C[C@@H](C(=O)Nc4ccccc4)CCC[C@@H]32)C1 [I-BC11, (2R,4aS,4bR,6aR,8S,11aS,11bR,13aR)-2-hydroxy-2,6a-dimethyl-N-phenyloctadecahydro-1H-cyclohepta[a]phenanthrene-8-carboxamide]",1000 to 10000 nM
9,C[C@@]1(O)CC[C@H]2[C@H](CC[C@@H]3[C@@H]2CC[C@]2(C)C[C@H](C(=O)Nc4ccccc4)CCC[C@@H]32)C1 [I-BC11a],1000 to 10000 nM
10,"CC(=O)[C@H]1CCC[C@H]2[C@@H]3CC[C@@H]4C[C@](C)(O)CC[C@@H]4[C@H]3CC[C@]2(C)C1 [I-BC14a, 1-((2R,4aS,4bR,6aR,8S,11aS,11bR,13aR)-2-hydroxy-2,6a-dimethyloctadecahydro-1H-cyclohepta[a]phenanthren-8-yl)ethan-1-one]",100 to 1000 nM
11,CC(=O)[C@@H]1CCC[C@H]2[C@@H]3CC[C@@H]4C[C@](C)(O)CC[C@@H]4[C@H]3CC[C@]2(C)C1 [I-BC14b],1000 to 10000 nM
12,"C[C@@]1(O)CC[C@H]2[C@H](CC[C@@H]3[C@@H]2CC[C@]2(C)C[C@@H](C(=O)Cn4cc(C#N)cn4)CCC[C@@H]32)C1 [I-BC16, 1-(2-((2R,4aS,4bR,6aR,8S,11aS,11bR,13aR)-2-hydroxy-2,6a-dimethyloctadecahydro-1H-cyclohepta[a]phenanthren-8-yl)-2-oxoethyl)-1H-pyrazole-4-carbonitrile]",100 to 1000 nM
13,"C[C@@]1(O)CC[C@H]2[C@H](CC[C@@H]3[C@@H]2CC[C@]2(C)C[C@H](C(=O)Cn4cc(C#N)cn4)CCC[C@@H]32)C1 [I-BC16a, 1-(2-((2R,4aS,4bR,6aR,8R,11aS,11bR,13aR)-2-hydroxy-2,6a-dimethyloctadecahydro-1H-cyclohepta[a]phenanthren-8-yl)-2-oxoethyl)-1H-pyrazole-4-carbonitrile]",100 to 1000 nM

# — patent publication US20220315621A1, “COMPOSITIONS AND METHODS FOR TREATING CNS DISORDERS” (priority 2017, published 2022)
